From US5248696A, “Composition and method for treating tumors” (World Research Institute for Science and Technology, Inc., priority 1991, dated 1993)

Set-up: species or system female CD1 mice
Details: mouse, in vivo
Method: In accordance with the procedure outlined in Canc. Res. 47: 3707-3711, female CD1 mice (obtained from Charles River Laboratories) were inoculated intraperitoneally with 10^6 S 180 cells in 100 microliters of phosphate buffered saline (PBS). Controls received PBS only. Both tumor and control mice were divided into three groups of ten mice per group. Rosin and technical grade abietic acid were each dissolved in ethanol at a concentration of 200 mg/ml which was diluted with 10% newborn calf serum in PBS to a ratio of 1:20 to form respective suspensions. Untreated groups (both tumor and control mice) were inoculated intraperitoneally with 1 ml of vehicle alone while […] and the technical grade abietic acid treated groups (both tumor and control) were intraperitoneally inoculated with 1 ml (10 mg) of the technical grade abietic acid suspension, the doses being administered immediately, and thereafter on the third, sixth and ninth days. Data from animals which expired within two hours of any inoculation (at zero, three, six and nine days) were discarded. […]

rosin
adipose tissue deposition: increased deposition of adipose tissue
